# Test results reported in US9217170B2, “Fluorescent detector systems for the detection of chemical perturbations in sterile storage devices” (Blood Cell Storage, Inc., priority 2004, dated 2015).
# Where two headings read alike, the source gives them in different places.
# Experiments:
# [1] = pH 6
# Experimental: (§1) Absorbance was measured at pH 6, 8, and 10: acid (pH 6) gave two bands of similar absorbance; pH 10 gave a single λmax (base). The emission spectra were determined by excitation at the absorbance λmax (base). The wavelength where emission spectra crossed is reported as λiso. The emission λmax was measured at pH 10. pKa was determined from fluorescence emission spectra.
# (§2) Fluorescence versus pH of various SNAFL free acids were compared using an Ocean Optics USB2000 fiber optic spectrometer and a tungsten halogen light source (part number HL-2000 FHSA). The light source was equipped with a linear variable filter that allowed the wavelength and shape of the excitation beam to be adjusted. […] A cuvette holder (part number CUV-FL-DA) was directly attached to the light source and a fiber optic cable directed emitted light to the spectrometer. Excitation conditions are reported for each fluorescence spectrum (3000 msec irradiation at the indicated wavelength). Spectral data were collected on a personal computer using the Ocean Optics software and overlays of different spectra were captured. […]
# (§3) The pH at which two molecular species (tautomers) are equally represented is defined as the pKa. […] The intensity of fluorescence at the emission maxima is divided by 2, and pH of the intersecting pH curve is calculated by interpolation between the nearest 2 curves.
# [2] = pKa determination from fluorescence emission spectra of SNAFL analogs; details: phosphate buffer, pH 6
# Experimental: as §1, §2, §3
# [3] = published / literature value; cited from earlier work
compound,measurement,setting,value
"5′(and 6′)-carboxy-3,10-dihydroxy-spiro[7H-benzo[c]xanthene-7,1′(3′H)-isobenzofuran]-3′-one [SNAFL-1]",pKa,[1],7.6
"O=C(O)CCc1cc2c(-c3ccccc3C(=O)O)c3ccc4cc(O)c(Cl)cc4c3oc-2cc1=O [EBIO-3, 2-(2-chloro-3-hydroxy-9-carboxyethyl-10-oxo-10H-benzo[c]xanthen-7-yl)benzoic acid]",pKa,[2],6.6
O=S1(=O)OC2(c3ccccc31)c1ccc3cc(O)ccc3c1Oc1c2ccc2cc(O)ccc12 [VITABLUE],pKa,[3],7.56
